Assay results as given in US7973024B2, “24-sulfoximine vitamin D3 compounds” (Cyctochroma Inc., priority 2002, dated 2011).

How the values were obtained:
Format in all cases: cell-based
SCC-25 cells = experiment: [3H]-thymidine proliferation assay with SCC-25 cells; settings: together with calcitriol, three days, [3H]-thymidine 6 h
Method: 1. Preparation of Cell Suspension • When SCC-25 cells were 70-80% confluent, aspirated media. Washed the cells with 1×PBS. Trypsinized with trypsin-EDTA from the plate, collected cells from the tissue culture flask, centrifuged (500×g, 5 min) and resuspended in media.
2. Cell Plating. • Counted the cells and adjusted the cell density to 10,000/ml. Added 200 μl per well in a 96 well plate. Incubated plate for 24 h at 37° C. in a humidified atmosphere plus 5% CO2. Aspirated used media and replaced with 150 μl per well with media.
3. Compound Addition. • Added 25 μl of 1α,25(OH)2D3 (final concentration 10^−6M, 10^−7 M, 10^−8 M, M, 10^−10 M, 10^−11 M) into each designated well. Added 25 μl of substrate (final concentration 10^−7 M, 5×10^−8 M, 10^−8 M or 10^−9 M) into each designated well. Incubated plates for 3 days at 37° C. in a humidified atmosphere plus 5% CO2.
4. ^3H-Thymidine Incorporation. • Added ^3H-thymidine at 0.02 μCi per well and incubated at 37° C. in a humidified atmosphere plus 5% CO2 for 6 h.
5. Plate Harvesting. • Aspirated all media and washed cells with 1×PBS. Trypsinized cells for 30 min at 37° C. in a humidified atmosphere plus 5% CO2. Harvested cells onto a 96 well filter plate (Millipore) using a Tomtec Cell Harvestor, according to manufacturers instructions.
6. Scintillation Counting. • Added 25 μl of scintillation fluid per well. Counted the plate using a scintillation counter.

CYP24 [1] = biological target: T1, CYP24 (Homo sapiens, UniProt Q07973); experiment: CYP24 enzyme assay (stable cell line V79-CYP24 cells); settings: [3H-1β]-1α,25(OH)2D3 20 nM, 2 hours
T1 construct: expressed in transfected cells
T1 sequence (Q07973 36-514): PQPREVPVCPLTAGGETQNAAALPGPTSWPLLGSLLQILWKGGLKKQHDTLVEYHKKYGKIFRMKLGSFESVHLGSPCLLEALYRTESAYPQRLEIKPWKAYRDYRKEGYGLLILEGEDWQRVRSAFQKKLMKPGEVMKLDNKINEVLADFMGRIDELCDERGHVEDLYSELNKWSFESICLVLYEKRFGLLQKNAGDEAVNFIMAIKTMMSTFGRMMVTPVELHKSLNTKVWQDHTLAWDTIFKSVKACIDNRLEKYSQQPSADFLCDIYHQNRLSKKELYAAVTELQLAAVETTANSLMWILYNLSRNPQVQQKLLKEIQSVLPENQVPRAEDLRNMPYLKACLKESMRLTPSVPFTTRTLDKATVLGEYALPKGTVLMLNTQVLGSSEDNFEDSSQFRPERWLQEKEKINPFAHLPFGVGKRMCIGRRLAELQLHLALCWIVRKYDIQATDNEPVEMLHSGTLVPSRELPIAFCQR
Method: 1. Preparation of Cell Suspension • On the day of the assay, washed the monolayer of V79-CYP24 cells once with 1×PBS buffer and then trypsinize for 5 min at room temperature (approx. 22° C.). Added 1×PBS. Collected cells into tube, centrifuged cells (500×g, 5 min) and resuspended in DMEM+1% BSA media.
2. Cell Plating • Added 150 μl of cell suspension to appropriately labelled wells of a 48-well plate. Incubated plate for 30 minutes at 37° C. in a humidified atmosphere containing 5% CO2 for adherence of cells to wells.
3. Compound Addition • Added 25 μl of inhibitor (10^−6 to 10^−9 M) and then after 10 min added 25 μl of substrate [^3H-1β]-1α,25(OH)2D3 (20 nM) for 2 hours at 37° C. in a humidified atmosphere containing 5% CO2. Both inhibitor and substrate were prepared in DMEM with 1% BSA media in the absence and presence of 100 μM DPPD.
4. Lipid Extraction and Counting • Added 500 μL of methanol to stop the reaction. Transferred to tube. Added 250 μl of dichloromethane and vortexed. Added 250 μl of dichloromethane and 250 μl of saturated KCL and vortexed. Centrifuged at 4000 rpm for 5 min. Triplicate 100 μl aliquots of aqueous fraction were mixed with 600 μl of scintillation fluid and the radioactivity was measured using a scintillation counter. All values were normalized for background. (iii) Results.

CYP24 [2] = biological target: T1, CYP24; experiment: CYP24 enzyme assay (induced HPK1A-ras cells); settings: HPK1A-ras cells induced with 1,25(OH)2D3; [3H]-1,25(OH)2D3 substrate, 2 hour
Method: 1.25(OH)2D3 10^−5 M (Sigma, St. Louis, Mo.);
Preparation of 10^−5 M working solution is as follows:
Dissolve 1 mg of 1,25(OH)2D3 into 480 μl of isopropanol to make 5×10^−3 M stock solution. Store at −70° C. until needed. Aliquot 1 μl of 1.25(OH)2D3 5×10^−3 M stock solution to 499 μl of isopropanol to make 1.25(OH)2D3 10^−5 working solution. Store at −20° C. until needed. […] Induction of HPKIA-ras cells (The day before assay) • When the HPK1A-ras cells were 80-90% confluent, added 1 μL 10^−5 M 1.25(OH)2D3 to 1 mL medium in the plate (final concentration is 10^−8 M). • 2. Preparation of cell suspension • After 18 to 20 hours induction, removed the medium and washed the cell twice with PBS. Then tripsinized the cells from plate, centrifuged (2,000 rpm, 5 min) and suspended cells pellet in DMEM medium+1% BSA. • Counted the cells and adjusted cells density to 250,000/150 μL, added 150 μL cell suspension to each well in 48-well plate (including 3 wells as a no cell control, and 3 well cells without drug or inhibitor as controls). • 3. […] Kept the plate in 37° C. for 10 min. • 4. Preparation of substrate • For each ml required, added 972 μl of DMEM+1% BSA medium, 20 μl of 3H-1,25(OH)2D3, and 8 μl of 100 nM DPPD to a tube and vortexed. • 5. Incubation • Added 25 μL substrate to each well, incubated the plate at 37° C. for 2 hour. • Added 25 μL substrate to counting plate (2 well) as a total count. • 6. Lipid Extraction and Counting • Added 500 μL methanol to each well to stop the reaction, transferred them to tube. • Added 250 μL dichloromethane and vortex. • Added 250 μL dichloromethane and […] saturated KCI, and vortex. • Centrifuged at 4000 rpm for 5 min. • Transferred 100 μL of aqueous phase (upper phase) to counting plastic counting plate. Added 600 μL of scintillation fluid to each well. Counted the plate in scintillation counter. • 7. Calculation Enzyme Activity • CPM of cell control after subtraction of CPM of non-cell control (NCC) was as 100% enzyme activity.
• Dilution of test compounds • Stock 10^−3 M

IC50 (CYP24 [1]): 20 nM | IC50 (CYP24 [2]): 33 nM
SMILES: C=C1/C(=C\C=C2/CCC[C@]3(C)[C@@H]([C@H](C)CCS(=N)(=O)c4ccccc4)CC[C@@H]23)C[C@@H](O)C[C@@H]1O (single isomer, unassigned) [I(c)]
inhibition of proliferation of SCC-25 cells (SCC-25 cells): act to inhibit the proliferation
